Reference: article PMC7366380, “Discovery of a Potent and Selective Covalent Inhibitor and Activity-Based Probe for the Deubiquitylating Enzyme UCHL1, with Antifibrotic Activity” (Journal of the American Chemical Society, 2020)
Where “and” joins values, the source holds several entries; their conditions need not be identical. Equal values may be shown once.

Tests used:
[1] = biological target: T1, UCHL3 (Homo sapiens, UniProt P15374); test: In-cell proteome-wide competitive ABPP, HEK293: UCHL3; conditions: for Log2 reporter intensity values: UCHL3: DMSO substract (FC); for Log2 reporter intensity values: UCHL3 / Log2 reporter intensity values: replicates A-C; for Log2 reporter intensity values: UCHL3, DMSO subtracted
T1 sequence (P15374 1-230): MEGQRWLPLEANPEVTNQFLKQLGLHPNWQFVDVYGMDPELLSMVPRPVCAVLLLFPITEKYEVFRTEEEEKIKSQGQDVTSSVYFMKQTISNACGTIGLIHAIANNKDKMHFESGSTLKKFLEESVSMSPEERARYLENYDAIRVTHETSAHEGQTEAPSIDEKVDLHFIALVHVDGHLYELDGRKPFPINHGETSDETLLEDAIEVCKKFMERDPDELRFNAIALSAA

[2] = biological target: T2, USP30 (Homo sapiens, UniProt Q70CQ3); test: biochemical
T2 sequence (Q70CQ3 1-517): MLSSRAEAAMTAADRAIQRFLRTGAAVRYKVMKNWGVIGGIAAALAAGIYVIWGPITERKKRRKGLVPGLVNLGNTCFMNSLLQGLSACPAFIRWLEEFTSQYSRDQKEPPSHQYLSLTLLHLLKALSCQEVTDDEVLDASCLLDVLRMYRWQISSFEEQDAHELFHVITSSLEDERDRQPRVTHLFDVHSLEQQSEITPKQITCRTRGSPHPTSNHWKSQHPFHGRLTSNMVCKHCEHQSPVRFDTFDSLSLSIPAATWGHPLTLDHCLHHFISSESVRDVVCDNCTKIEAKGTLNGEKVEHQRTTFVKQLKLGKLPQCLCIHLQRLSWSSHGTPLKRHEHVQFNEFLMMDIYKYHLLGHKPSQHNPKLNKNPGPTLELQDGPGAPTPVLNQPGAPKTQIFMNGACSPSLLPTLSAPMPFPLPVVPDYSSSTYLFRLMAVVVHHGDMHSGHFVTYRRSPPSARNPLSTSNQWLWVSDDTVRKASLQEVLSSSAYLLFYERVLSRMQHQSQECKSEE

[3] = biological target: T3, USP4 (Homo sapiens, UniProt Q13107); test: Biochemical DUB selectivity profiling assay: USP4; conditions: Ub-Lys-TAMRA 50 nM, buffer A; read-out: Biochemical IC50 range, USP4
T3 sequence (Q13107 1-963): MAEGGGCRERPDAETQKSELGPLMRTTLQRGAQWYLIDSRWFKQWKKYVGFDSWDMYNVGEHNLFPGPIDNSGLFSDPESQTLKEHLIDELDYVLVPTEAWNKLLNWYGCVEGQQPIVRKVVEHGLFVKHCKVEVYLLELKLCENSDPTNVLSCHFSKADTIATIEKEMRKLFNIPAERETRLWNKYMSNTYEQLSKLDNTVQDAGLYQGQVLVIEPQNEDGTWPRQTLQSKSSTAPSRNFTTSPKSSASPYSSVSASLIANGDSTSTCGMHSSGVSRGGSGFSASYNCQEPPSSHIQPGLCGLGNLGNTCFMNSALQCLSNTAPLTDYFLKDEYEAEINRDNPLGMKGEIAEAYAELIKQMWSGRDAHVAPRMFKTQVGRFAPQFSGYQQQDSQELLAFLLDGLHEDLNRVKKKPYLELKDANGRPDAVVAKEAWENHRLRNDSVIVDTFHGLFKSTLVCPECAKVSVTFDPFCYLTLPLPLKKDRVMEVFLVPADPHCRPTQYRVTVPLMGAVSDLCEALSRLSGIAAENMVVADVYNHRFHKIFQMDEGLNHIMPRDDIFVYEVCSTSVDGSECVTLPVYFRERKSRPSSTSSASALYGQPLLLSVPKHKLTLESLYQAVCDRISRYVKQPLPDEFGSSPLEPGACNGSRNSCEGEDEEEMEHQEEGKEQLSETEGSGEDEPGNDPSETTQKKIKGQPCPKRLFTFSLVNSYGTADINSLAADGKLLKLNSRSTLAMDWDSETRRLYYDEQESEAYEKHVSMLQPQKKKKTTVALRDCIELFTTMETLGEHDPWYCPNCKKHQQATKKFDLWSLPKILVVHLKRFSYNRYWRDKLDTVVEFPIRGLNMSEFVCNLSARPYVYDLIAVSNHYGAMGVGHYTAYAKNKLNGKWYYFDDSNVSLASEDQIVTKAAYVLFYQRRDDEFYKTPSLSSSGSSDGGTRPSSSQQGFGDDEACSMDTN
Procedure: DUB Assay Substrate Substrate
Buffer Concentration (nM) […]
Sepharose® 4B resin (GE Healthcare).
10 kDa molecular weight cut-off (MWCO)).
Fractions containing protein
Protein concentration was […]
reaction volume of 21 μL. […]
compound (final concentration 5 nM).
IC50 values were determined
Biochemical DUB selectivity profiling assays […]
in 40 µL total reaction volume.

[4] = biological target: T4, DUBs and other proteins in HEK293 cells (Homo sapiens, UniProt Q53GS9); test: In-cell proteome-wide competitive ABPP, HEK293: other DUBs and proteins; conditions: replicates A-C; for Log2 reporter intensity values: USP39: DMSO substract (FC); for Log2 reporter intensity values: USP39, DMSO subtracted
T4 sequence (Q53GS9 1-565): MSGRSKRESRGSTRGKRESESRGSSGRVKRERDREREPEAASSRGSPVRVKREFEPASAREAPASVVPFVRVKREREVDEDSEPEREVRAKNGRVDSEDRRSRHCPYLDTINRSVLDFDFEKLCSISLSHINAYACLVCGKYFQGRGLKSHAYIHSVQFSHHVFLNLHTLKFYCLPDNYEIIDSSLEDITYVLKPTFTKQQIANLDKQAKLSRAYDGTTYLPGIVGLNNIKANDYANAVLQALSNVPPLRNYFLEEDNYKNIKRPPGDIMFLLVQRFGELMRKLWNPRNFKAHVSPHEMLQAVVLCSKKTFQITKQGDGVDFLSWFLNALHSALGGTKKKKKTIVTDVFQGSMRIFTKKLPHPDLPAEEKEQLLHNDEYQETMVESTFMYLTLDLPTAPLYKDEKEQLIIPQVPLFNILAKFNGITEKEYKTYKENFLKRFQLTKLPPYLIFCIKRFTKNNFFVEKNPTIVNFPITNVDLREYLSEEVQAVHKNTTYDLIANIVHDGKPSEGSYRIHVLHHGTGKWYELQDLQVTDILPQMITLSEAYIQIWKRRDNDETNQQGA

[5] = biological target: DUBs and other proteins in HEK293 cells (Homo sapiens, UniProt Q9UPU5); test: as above; conditions: replicates A-C; for Log2 reporter intensity values: USP24: DMSO substract (FC); for Log2 reporter intensity values: USP24, DMSO subtracted
Chain of DUBs and other proteins in HEK293 cells (Homo sapiens, UniProt Q9UPU5) (Q9UPU5 whole entry): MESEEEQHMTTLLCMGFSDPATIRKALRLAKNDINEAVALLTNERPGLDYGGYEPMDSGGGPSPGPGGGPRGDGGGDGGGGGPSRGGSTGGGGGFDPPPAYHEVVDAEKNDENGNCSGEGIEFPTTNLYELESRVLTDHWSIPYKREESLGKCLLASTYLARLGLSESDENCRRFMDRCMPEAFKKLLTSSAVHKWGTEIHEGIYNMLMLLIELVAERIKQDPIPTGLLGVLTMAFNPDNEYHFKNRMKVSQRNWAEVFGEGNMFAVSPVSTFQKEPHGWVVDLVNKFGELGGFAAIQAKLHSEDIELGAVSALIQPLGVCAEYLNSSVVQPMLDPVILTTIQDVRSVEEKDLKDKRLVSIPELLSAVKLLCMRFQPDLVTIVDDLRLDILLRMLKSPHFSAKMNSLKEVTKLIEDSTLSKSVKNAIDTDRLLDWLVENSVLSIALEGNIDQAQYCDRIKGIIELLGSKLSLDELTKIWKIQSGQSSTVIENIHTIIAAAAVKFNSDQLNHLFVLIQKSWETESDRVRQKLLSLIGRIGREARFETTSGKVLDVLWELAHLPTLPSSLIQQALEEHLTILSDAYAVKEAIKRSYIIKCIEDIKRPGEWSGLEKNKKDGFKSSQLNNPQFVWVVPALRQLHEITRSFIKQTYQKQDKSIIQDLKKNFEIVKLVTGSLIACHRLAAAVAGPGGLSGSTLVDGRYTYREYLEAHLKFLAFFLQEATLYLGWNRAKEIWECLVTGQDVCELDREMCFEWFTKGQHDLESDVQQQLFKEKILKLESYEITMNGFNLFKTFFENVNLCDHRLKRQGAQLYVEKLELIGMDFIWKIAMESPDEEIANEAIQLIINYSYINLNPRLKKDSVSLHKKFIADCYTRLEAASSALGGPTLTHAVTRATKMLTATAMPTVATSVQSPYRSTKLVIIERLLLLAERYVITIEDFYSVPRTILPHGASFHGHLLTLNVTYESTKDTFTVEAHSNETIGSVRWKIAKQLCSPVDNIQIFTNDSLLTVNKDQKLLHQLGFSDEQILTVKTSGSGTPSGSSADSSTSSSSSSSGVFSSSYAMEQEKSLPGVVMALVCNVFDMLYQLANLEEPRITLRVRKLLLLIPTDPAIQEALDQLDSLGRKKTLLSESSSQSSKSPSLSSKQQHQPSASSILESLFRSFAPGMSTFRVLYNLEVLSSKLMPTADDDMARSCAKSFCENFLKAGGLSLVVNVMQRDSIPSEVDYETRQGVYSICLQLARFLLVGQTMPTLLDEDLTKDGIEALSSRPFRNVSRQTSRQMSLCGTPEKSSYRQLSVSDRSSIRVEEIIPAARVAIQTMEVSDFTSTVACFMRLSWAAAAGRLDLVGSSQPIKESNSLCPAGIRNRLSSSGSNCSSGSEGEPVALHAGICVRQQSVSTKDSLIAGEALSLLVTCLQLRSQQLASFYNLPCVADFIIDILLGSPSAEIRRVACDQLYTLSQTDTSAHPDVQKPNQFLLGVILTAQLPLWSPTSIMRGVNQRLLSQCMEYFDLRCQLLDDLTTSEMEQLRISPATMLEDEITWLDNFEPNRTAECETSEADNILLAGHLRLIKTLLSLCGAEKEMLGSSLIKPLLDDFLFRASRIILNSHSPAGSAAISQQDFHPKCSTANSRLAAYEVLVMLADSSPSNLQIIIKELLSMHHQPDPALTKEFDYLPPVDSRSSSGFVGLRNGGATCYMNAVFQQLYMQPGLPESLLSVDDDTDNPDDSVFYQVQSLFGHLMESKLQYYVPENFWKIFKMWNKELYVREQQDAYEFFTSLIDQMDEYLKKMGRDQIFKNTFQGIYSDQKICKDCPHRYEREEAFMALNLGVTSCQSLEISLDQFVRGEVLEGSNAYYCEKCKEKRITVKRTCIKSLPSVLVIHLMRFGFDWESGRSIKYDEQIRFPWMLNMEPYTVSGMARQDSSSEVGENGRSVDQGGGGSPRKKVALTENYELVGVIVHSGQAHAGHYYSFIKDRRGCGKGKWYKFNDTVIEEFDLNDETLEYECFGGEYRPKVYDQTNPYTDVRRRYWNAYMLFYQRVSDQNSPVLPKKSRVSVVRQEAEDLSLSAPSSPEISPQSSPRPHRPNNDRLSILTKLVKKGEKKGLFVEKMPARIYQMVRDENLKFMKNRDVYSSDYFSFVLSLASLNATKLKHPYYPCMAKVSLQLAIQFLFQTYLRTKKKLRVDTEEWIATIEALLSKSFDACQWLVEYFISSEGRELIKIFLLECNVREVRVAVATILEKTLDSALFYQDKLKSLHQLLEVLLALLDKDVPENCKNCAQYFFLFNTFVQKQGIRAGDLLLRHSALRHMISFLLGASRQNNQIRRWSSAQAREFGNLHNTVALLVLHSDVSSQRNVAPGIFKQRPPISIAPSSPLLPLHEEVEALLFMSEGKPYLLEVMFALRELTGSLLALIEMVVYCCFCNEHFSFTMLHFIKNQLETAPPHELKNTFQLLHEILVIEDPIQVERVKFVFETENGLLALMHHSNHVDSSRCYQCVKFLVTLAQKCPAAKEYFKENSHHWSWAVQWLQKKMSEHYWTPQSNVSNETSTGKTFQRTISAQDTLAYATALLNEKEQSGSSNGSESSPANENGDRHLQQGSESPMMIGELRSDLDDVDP

[6] = 1 at 1 μM, competition with ABP 2
[7] = 1 at 4 μM, competition with ABP 2
[8] = LDN at 5 μM, competition with ABP 2
[9] = LDN at 25 μM, competition with ABP 2

## N#CN1CCC[C@H]1C(=O)N1CCc2c(-c3c[nH]c4ncccc34)cccc21 [Compound 1]
[1]; [6]
  Log2 reporter intensity values: UCHL3: 0.8904 and 1.311 and 0.2787
[1]; [7]
  Log2 reporter intensity values: UCHL3: 0.7742 and 0.7243 and 0.9234
[1]; HEK293, compound 60 min, then 2 (20 nM) 10 min
  UCHL3 response in proteome-wide competitive ABPP: small response
[1]; 1_1 μM
  Log2 reporter intensity values: -0.1178 and 0.3024 and -0.7296
[1]; 1_4 μM
  Log2 reporter intensity values: -0.234 and -0.284 and -0.08483
[1]; 1 at 1 μM
  Log2 reporter intensity values: -0.1675 and 0.3902 and -1.8434
[1]; 1 at 4 μM
  Log2 reporter intensity values: -0.3692 and -0.4654 and -0.115
[2]
  IC50: 1 to 10 µM
[3]
  IC50: > 10 µM
[4]; [6]
  Log2 reporter intensity values: USP39: 1.016 and 0.9671 and 0.9953
[4]; [7]
  Log2 reporter intensity values: USP39: 1.053 and 0.9437 and 0.9559
[4]; 1_1 μM
  Log2 reporter intensity values: 0.01573 and -0.03349 and -0.00527
[4]; 1_4 μM
  Log2 reporter intensity values: 0.0526 and -0.05693 and -0.04466
[4]; 1 at 1 μM
  Log2 reporter intensity values: 0.02338 and -0.04824 and -0.006739
[4]; 1 at 4 μM
  Log2 reporter intensity values: 0.0748 and -0.08363 and -0.065
[5]; [6]
  Log2 reporter intensity values: USP24: 1.001 and 1.09 and 1.248
[5]; [7]
  Log2 reporter intensity values: USP24: 0.9741 and 0.9874 and 0.9877
[5]; 1_1 μM
  Log2 reporter intensity values: -0.002058 and 0.08693 and 0.2444
[5]; 1_4 μM
  Log2 reporter intensity values: -0.02929 and -0.01601 and -0.01571
[5]; 1 at 1 μM
  Log2 reporter intensity values: 0.00188 and 0.1247 and 0.3193
[5]; 1 at 4 μM
  Log2 reporter intensity values: -0.0379 and -0.01836 and -0.01793

## C#Cc1cnc2[nH]cc(-c3cccc4c3CCN4C(=O)[C@@H]3CCCN3C#N)c2c1 [Compound 2]
[1]; 20 nM ABP 2 alone
  Log2 reporter intensity values: UCHL3: 2.007 and 1.656 and 1.566
[1]; 20 nM ABP 2
  Log2 reporter intensity values: 1.005 and 0.7277 and 0.6472 and 0.9988 and 0.6478 and 0.5579
[3]
  IC50: > 10 µM
[4]; 20 nM ABP 2 alone
  Log2 reporter intensity values: USP39: 0.9355 and 0.9539 and 0.9302
[4]; 20 nM ABP 2
  Log2 reporter intensity values: -0.09621 and -0.06804 and -0.1044 and -0.06512 and -0.04668 and -0.07041
[5]; 20 nM ABP 2 alone
  Log2 reporter intensity values: USP24: 1.118 and 1.126 and 1.127
[5]; 20 nM ABP 2
  Log2 reporter intensity values: 0.1605 and 0.1713 and 0.1729 and 0.1143 and 0.1227 and 0.1239

## CC(=O)O/N=C1\C(=O)N(Cc2cc(Cl)ccc2Cl)c2ccc(Cl)cc21 [LDN-57444, reference compound]
[2]
  IC50: > 10 µM
[3]
  IC50: > 10 µM

## CC(=O)O/N=C1\C(=O)N(Cc2cc(Cl)ccc2Cl)c2ccc(Cl)cc21 [LDN]
[1]; [8]
  Log2 reporter intensity values: UCHL3: 1.511 and 1.383 and 1.619
[1]; [9]
  Log2 reporter intensity values: UCHL3: 1.505 and 1.419 and 1.696
[1]; LDN at 5 μM
  Log2 reporter intensity values: 0.5958 and 0.4677 and 0.6949
[1]; LDN at 25 μM
  Log2 reporter intensity values: 0.5899 and 0.5052 and 0.7625
[1]; LDN_5 μM
  Log2 reporter intensity values: 0.5031 and 0.3746 and 0.6105
[1]; LDN_25 μM
  Log2 reporter intensity values: 0.4969 and 0.4111 and 0.6882
[4]; [8]
  Log2 reporter intensity values: USP39: 1.029 and 1.043 and 0.9785
[4]; [9]
  Log2 reporter intensity values: USP39: 1.07 and 1.069 and 1.033
[4]; LDN at 5 μM
  Log2 reporter intensity values: 0.04123 and 0.06024 and -0.03137
[4]; LDN at 25 μM
  Log2 reporter intensity values: 0.09762 and 0.09571 and 0.04713
[4]; LDN_5 μM
  Log2 reporter intensity values: 0.02838 and 0.04203 and -0.02212
[4]; LDN_25 μM
  Log2 reporter intensity values: 0.0694 and 0.06798 and 0.0326
[5]; [8]
  Log2 reporter intensity values: USP24: 0.8375 and 1.105 and 1.062
[5]; [9]
  Log2 reporter intensity values: USP24: 1.15 and 1.015 and 1.054
[5]; LDN at 5 μM
  Log2 reporter intensity values: -0.2559 and 0.1441 and 0.08741
[5]; LDN at 25 μM
  Log2 reporter intensity values: 0.2018 and 0.02211 and 0.07566
[5]; LDN_5 μM
  Log2 reporter intensity values: -0.1659 and 0.1016 and 0.0591
[5]; LDN_25 μM
  Log2 reporter intensity values: 0.1468 and 0.01208 and 0.05048
